Each compound was assayed against EGFR (Homo sapiens, UniProt P00533) (assay: EGFR assay (cellular ELISA, NIH 3T3/C7 cells)). Details: read-out: cell EGF IC50.
Type: cell-based
Set-up: expressed in transfected cells; host or cells: NIH 3T3/C7
Description: EGF Receptor kinase activity in cells genetically engineered to express human EGF-R can be measured as described below:
Materials and Reagents. • a. […] 05-101 (UBI) (a monoclonal antibody recognizing an EGFR extracellular domain). • c. Anti-phosphotyosine antibody (anti-Ptyr) (polyclonal). • d. Detection antibody: Goat anti-rabbit IgG horse radish peroxidase conjugate, TAGO, Inc. Burlingame, Calif. • e. TBST buffer:
• Keep solution in dark at 4° C. until used. • h. Stock reagents of:
Pre-coat ELISA Plate • 1. […] Coated plates are good for up to 10 days when stored at 4° C. • 2. On day-of use, remove coating buffer and replace with blocking buffer (5% Carnation Instant NonFat Dry Milk in PBS). Incubate the plate, shaking, at room temperature (about 23° C. to 25° C.) for 30 minutes. Just prior to use, remove blocking buffer and wash plate 4 times with TBST buffer.
Seeding Cells • 1. […] Choose dishes having 80-90% confluence for the experiment. Trypsinize cells and stop reaction by adding 10% CS DMEM medium. Suspend cells in DMEM medium (10% CS DMEM medium) and centrifuge once at 1000 rpm at room temperature for 5 minutes. • 3. Resuspend cells in seeding medium (DMEM, 0.5% bovine serum), and count the cells using trypan blue. Viability above 90% is acceptable. Seed cells in DMEM medium (0.5% bovine serum) at a density of 10,000 cells per well, 100 μl per well, in a 96 well microtiter plate. Incubate seeded cells in 5% CO2 at 37° C. for about 40 hours.
Assay Procedures. • 1. Check seeded cells for contamination using an inverted microscope. Dilute test compounds stock (10 mg/ml in DMSO) 1:10 in DMEM medium, then transfer 5 μl to a test well for a test compounds drug dilution of 1:200 and a final DMSO concentration of 1%. Control wells receive DMSO alone. Incubate in 5% CO2 at 37° C. for one hour. • 2. Prepare EGF ligand: dilute stock EGF in DMEM so that upon transfer of 10 μl dilute EGF (1:12 dilution), 25 nM final concentration is attained. • 3. Prepare fresh 10 ml HNTG* sufficient for 100 μl per well wherein HNTG* comprises: HNTG stock (2.0 ml), milli-Q H2O (7.3 ml), EDTA, 100 mM, pH 7.0 (0.5 ml), Na3VO4 0.5 M (0.1 ml) and Na4(P2O7), 0.2 M (0.1 ml). • 4. Place on ice. • 5. After two hours incubation with drug, add prepared EGF ligand to cells, 10 μl per well, to yield a final concentration of 25 nM. Control wells receive DMEM alone. Incubate, shaking, at room temperature, for 5 minutes. • 6. Remove test compound, EGF, and DMEM. Wash cells twice with PBS. Transfer HNTG* to cells, 100 μl per well. Place on ice for 5 minutes. Meanwhile, remove blocking buffer from other ELISA plate and wash with TBST as described above. • 7. With a pipette tip securely fitted to a micropipettor, scrape cells from plate and homogenize cell material by repeatedly aspirating and dispensing the HNTG* lysis buffer. Transfer lysate to a coated, blocked, and washed ELISA plate. Incubate shaking at room temperature for one hour. • 8. Remove lysate and wash 4 times with TBST. Transfer freshly diluted anti-Ptyr antibody to ELISA plate at 100 μl per well. Incubate shaking at room temperature for 30 minutes in the presence of the anti-Ptyr antiserum (1:3000 dilution in TBST). • 9. Remove the anti-Ptyr antibody and wash 4 times with TBST. Transfer the freshly diluted TAGO 30 anti-rabbit IgG antibody to the ELISA plate at 100 μl per well. Incubate shaking at room temperature for 30 minutes (anti-rabbit IgG antibody: 1:3000 dilution in TBST). • 10. Remove detection antibody and wash 4 times with TBST. Transfer freshly prepared ABTS/H2O2 solution to ELISA plate, 100 μl per well. Incubate at room temperature for 20 minutes. ABTS/H2O2 solution: 1.2 μl 30% H2O2 in 10 ml ABTS stock. • 11. Stop reaction by adding 50 μl 5N H2SO4 (optional), and determine O.D. at 410 nm. • 12. The maximal phosphotyrosine signal is determined by subtracting the value of the negative controls from the positive controls. […]

Chain of EGFR (P00533 25-1210): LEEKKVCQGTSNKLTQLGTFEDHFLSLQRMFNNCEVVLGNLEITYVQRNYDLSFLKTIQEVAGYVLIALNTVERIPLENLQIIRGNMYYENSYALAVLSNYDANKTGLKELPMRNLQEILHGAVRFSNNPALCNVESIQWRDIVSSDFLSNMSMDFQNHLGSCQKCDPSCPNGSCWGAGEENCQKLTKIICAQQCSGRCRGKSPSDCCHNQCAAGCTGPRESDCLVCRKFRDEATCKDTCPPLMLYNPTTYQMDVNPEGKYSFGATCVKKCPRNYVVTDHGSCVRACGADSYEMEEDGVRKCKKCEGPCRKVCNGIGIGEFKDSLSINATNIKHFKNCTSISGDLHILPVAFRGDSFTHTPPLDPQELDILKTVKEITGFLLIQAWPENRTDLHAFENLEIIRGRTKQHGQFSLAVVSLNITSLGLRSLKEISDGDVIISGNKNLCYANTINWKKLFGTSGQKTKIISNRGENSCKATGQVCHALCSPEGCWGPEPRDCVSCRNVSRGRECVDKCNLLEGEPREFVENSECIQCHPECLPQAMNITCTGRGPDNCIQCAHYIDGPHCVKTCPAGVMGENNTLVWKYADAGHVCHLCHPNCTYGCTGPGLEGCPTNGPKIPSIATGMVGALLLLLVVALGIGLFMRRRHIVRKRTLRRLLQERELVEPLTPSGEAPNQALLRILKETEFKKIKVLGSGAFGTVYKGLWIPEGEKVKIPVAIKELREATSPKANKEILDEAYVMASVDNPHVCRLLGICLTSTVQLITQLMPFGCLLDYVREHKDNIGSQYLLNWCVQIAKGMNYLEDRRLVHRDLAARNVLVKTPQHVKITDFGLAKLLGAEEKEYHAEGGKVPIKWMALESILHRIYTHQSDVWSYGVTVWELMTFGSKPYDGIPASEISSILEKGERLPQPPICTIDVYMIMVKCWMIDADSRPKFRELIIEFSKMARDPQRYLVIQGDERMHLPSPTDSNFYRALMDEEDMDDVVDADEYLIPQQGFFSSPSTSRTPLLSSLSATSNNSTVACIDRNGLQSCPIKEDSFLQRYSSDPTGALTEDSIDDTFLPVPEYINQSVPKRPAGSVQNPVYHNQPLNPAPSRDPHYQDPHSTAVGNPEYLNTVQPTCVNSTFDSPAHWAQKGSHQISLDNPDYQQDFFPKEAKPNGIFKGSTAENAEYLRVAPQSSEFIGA

| Structure (SMILES) | IC50 [µM] |
| --- | --- |
| COc1c(C(C)C)cc(/C=C2/C(=O)Nc3cc(NC(=O)OC(C)(C)C)ccc32)cc1C(C)C [Example 52, [3-(3,5-Diisopropyl-4-methoxybenzylidene)-2-oxo-2,3-dihydro-1H-indol-6-yl]-carbamic acid tert-butyl ester] | > 100 |
| COc1c(C(C)C)cc(/C=C2\C(=O)Nc3cccc(C)c32)cc1C(C)C [Example 53, 3-(3,5-Diisopropyl-4-methoxybenzylidene)-4-methyl-1,3-dihydroindol-2-one] | 85 |
| COc1c(C(C)C)cc(/C=C2/C(=O)Nc3ccc(Br)cc32)cc1C(C)C [Example 54, 5-Bromo-3-(3,5-diisopropyl-4-methoxybenzylidene)-1,3-dihydroindol-2-one] | 79.3 |
| CC(=O)Nc1ccc2c(c1)NC(=O)/C2=C/c1ccc(OCCN2CCOCC2)c(C(C)(C)C)c1 [Example 55, N-{3-[3-tert-Butyl-4-(2-morpholin-4-ylethoxy)-benzylidene]-2-oxo-2,3-dihydro-1H-indol-6-yl}-acetamide] | 78.4 |
| COc1c(C)cc(/C=C2/C(=O)Nc3ncccc32)cc1C [Example 56, 3-(4-Methoxy-3,5-dimethylbenzylidene)-1,3-dihydropyrrolo[2,3-b]pyridin-2-one] | > 100 |
| CC(C)c1cc(/C=C2/C(=O)Nc3ccc(Br)cc32)cc(C(C)C)c1OCCN1CCOCC1 [Example 57, 5-Bromo-3-[3,5-diisopropyl-4-(2-morpholin-4-ylethoxy)benzylidene]-1,3-dihydroindol-2-one] | > 100 |
| CCOc1cccc(-c2cc(OC)c(OC)cc2/C=C2/C(=O)Nc3ccccc32)c1 [Example 58, 3-(3′-Ethoxy-4,5-dimethoxybiphenyl-2-ylmethylene)-1,3-dihydroindol-2-one] | > 100 |
| COc1ccc(/C=C2/C(=O)Nc3ccc(Cl)cc32)cc1-c1cccs1 [Example 59, 5-chloro-3-(4-Methoxy-3-thiophen-2-ylbenzylidene)-1,3-dihydroindol-2-one] | > 100 |
| COc1ccc(/C=C2/C(=O)Nc3ccc(Cl)cc32)cc1-c1cccnc1 [Example 60] | > 100 |
| COc1cccc(-c2cc(OC)c(OC)cc2/C=C2/C(=O)Nc3ccc(Cl)cc32)c1 [Example 61, 5-Chloro-3-(4,5-3′-Trimethoxybiphenyl-2-ylmethylene)-1,3-dihydroindol-2-one] | > 100 |
| COc1cc(/C=C2/C(=O)Nc3ccccc32)c(-c2ccc3ccccc3c2)cc1OC [Example 62, 3-(4,5-Dimethoxy-2-naphthalen-2-ylbenzylidene)-1,3-dihydroindol-2-one] | > 100 |
| COc1ccc2c(c1)NC(=O)/C2=C/c1ccc(OC)c(-c2ccsc2)c1 [Example 64, 6-Methoxy-3-(4-methoxy-3-thiophen-3-ylbenzylidene)-1,3-dihydroindol-2-one] | > 100 |
| COc1ccc(/C=C2/C(=O)Nc3ccccc32)cc1-c1ccccc1 [Example 65, 3-(6-Methoxybiphenyl-3-ylmethylene)-1,3-dihydroindol-2-one] | > 100 |
| O=C1Nc2ccccc2/C1=C\c1ccc2c(c1)CCO2 [Example 66, 3-(2,3-Dihydrobenzofuran-5-ylmethylene)-1,3-dihydroindol-2-one] | > 100 |
| COc1ccc(/C=C2/C(=O)Nc3ccc(Cl)cc32)cc1-c1ccccc1 [Example 67, 5-Chloro-3-(6-methoxybiphenyl-3-ylmethylene)-1,3-dihydroindol-2-one] | > 100 |
| COc1ccc(/C=C2\C(=O)Nc3cccc(C)c32)cc1C1CCCCC1 [Example 68, 3-(3-Cyclohexyl-4-methoxybenzylidene)-4-methyl-1,3-dihydroindol-2-one] | > 100 |
| Cc1cccc2c1/C(=C/c1ccc3c(c1)CCO3)C(=O)N2 [Example 69, 3-(2,3-Dihydrobenzofuran-5-ylmethylene)-4-methyl-1,3-dihydroindol-2-one] | > 100 |
| COc1ccc(/C=C2/C(=O)Nc3ncccc32)cc1C(C)C [Example 70, 3-(3-Isopropyl-4-methoxybenzylidene)-1,3-dihydropyrrolo[2,3-b]pyridine-2-one] | > 100 |
| COc1ccc(/C=C2/C(=O)Nc3ncccc32)cc1-c1ccccc1 [Example 71, 3-(6-Methoxybiphenyl-3-ylmethylene)-1,3-dihydropyrrolo[2,3-b]pyridin-2-one] | > 100 |
| COc1ccc(/C=C2/C(=O)Nc3ncccc32)cc1C1CCCCC1 [Example 72, 3-(3-Cyclohexyl-4-methoxybenzylidene)-1,3-dihydropyrrolo[2,3-b]pyridin-2-one] | > 100 |
| O=C1Nc2ncccc2/C1=C\c1ccc2c(c1)CCO2 [Example 73, 3-(2,3-Dihydrobenzofuran-5-ylmethylene)-1,3-dihydropyrrolo[2,3-b]pyridin-2-one] | > 50 |
| COc1c(C(C)C)cc(/C=C2/C(=O)Nc3ncccc32)cc1C(C)C [Example 74, 3-(3,5-Diisopropyl-4-methoxybenzylidene)-1,3-dihydropyrrolo[2,3-b]pyridin-2-one] | > 100 |
| Cc1cc(CCC(=O)O)c(/C=C2\C(=O)Nc3cc(-c4ccc(F)cc4)ccc32)[nH]1 [Example 107, 3-{2-[6-(4-Fluorophenyl)-2-oxo-1,2-dihydroindol-3-ylidenemethyl]-5-methyl-1H-pyrrol-3-yl}propionic acid] | > 100 |
| CCOC(=O)c1c(C)[nH]c(/C=C2\C(=O)Nc3cc(-c4ccc(F)cc4)ccc32)c1CCC(=O)O [Example 108, 4-(2-Carboxyethyl)-5-[6-(4-fluorophenyl)-2-oxo-1,2-dihydro-indol-3-ylidenemethyl]-2-methyl-1H-pyrrole-3-carboxylic acid ethyl ester] | > 100 |
| COc1ccccc1-c1ccc2c(c1)NC(=O)/C2=C\c1[nH]c(C)cc1CCC(=O)O [Example 109, 3-{2-[6-(2-Methoxyphenyl)-2-oxo-1,2-dihydroindol-3-ylidenemethyl]-5-methyl-1H-pyrrol-3-yl}-propionic acid] | > 100 |
| CCOC(=O)c1c(C)[nH]c(/C=C2\C(=O)Nc3cc(-c4ccccc4OC)ccc32)c1CCC(=O)O [Example 110, 4-(2-Carboxyethyl)-5-[6-(2-methoxyphenyl)-2-oxo-1,2-dihydro-indol-3-ylidenemethyl]-2-methyl-1H-pyrrol-3-yl-carboxylic acid ethyl ester] | > 100 |
| Cc1cc(CCC(=O)O)c(/C=C2\C(=O)Nc3ccc(Cl)cc32)[nH]1 [Example 111, 3-[2-(5-Chloro-2-oxo-1,2-dihydroindol-3-ylidenemethyl)-5-methyl-1H-pyrrol-3-yl]propionic acid] | > 100 |
| O=C1Nc2ccc(Br)cc2/C1=C/c1cc2ccccc2[nH]1 [Example 165, 5-Bromo-3-(1H-indol-2-ylmethylene)-1,3-dihydro-indol-2-one] | > 100 |
| Cc1cccc2c1/C(=C/c1cc3ccccc3[nH]1)C(=O)N2 [Example 166, 3-(1H-indol-2-ylmethylene)-4-methyl-1,3-dihydro-indol-2-one] | > 100 |

Source: patent US6855730B2, “3-methylidenyl-2-indolinone modulators of protein kinase” (Sugen, Inc., priority 1998, dated 2005)
